Legend:
platelets = test: sgp91phox in supernatant of platelets by ELISA with the monoclonal antibody of the invention; format: cell-based, human
platelet NADPH oxidase = test: Platelet NADPH oxidase activation: ROS production in AA-stimulated platelets by cytofluorimetry; format: cell-based, human; details: AA 0.5 mM
Experimental: To obtain platelet rich plasma (PRP) from HC and HS patients, samples were centrifuged 15 min at 180 g. To avoid leukocyte contamination, only the top 75% of the PRP was collected. Platelet pellet was suspended in HEPES buffer, pH 7.4 (2×10^8 platelets/mL, unless otherwise noted) and processed differently according to the type of experiment to be carried out.
To test NADPH oxidase activity, the levels of ROS in platelets from 5 human healthy subjects were measured by cytofluorimetry in the presence and in the absence of specific NADPH oxidase inhibitors, such as apocynin and the gp91^phox blocking peptide gp91ds-tat. Platelets were incubated with 2′,7′-dichlorofluorescin diacetate […] for 15 minutes at 37° C. After incubation, 100 μl of the sample was treated with arachidonic acid (AA, 0.5 mM) in presence or less of apocynin (100 μM) or the gp91^phox specific blocking peptide (gp91ds-tat, 50 μM). Then 10 μl of each sample was diluted with 1 ml of PBS and analyzed by flow cytometry. Basal OFR level in resting platelets was expressed as mean fluorescence (MF), AA-induced OFR production was expressed as stimulation index (S.I.=mean level of fluorescence in AA-stimulated platelet/mean level of fluorescence in unstimulated platelets) (Pignatelli P et al. Blood (1998) 95:484-490.

[1] = tested on: polymorphonuclear leukocytes (PMN); test: sgp91phox in supernatant of PMN by ELISA; format: cell-based, human; details: PMA 10 μM; unstimulated 1.53±0.66
Experimental: Polymorphonuclear leukocytes (PMN) were isolated from freshly taken EDTA-blood from healthy volunteers (n=5, healthy subjects) by dextran enhanced sedimentation of red blood cells, Ficoll-Histopaque density centrifugation, lysis of remaining erythrocytes with distilled water and washing of cells with Hank's balanced salt solution (HBSS) in the absence of any divalent cations. Finally, the cell pellet was suspended in 1 ml of HBSS and stimulated with or without 10 μM of phorbol 12-myristate 13-acetate (PMA). To evaluate sgp91phox in PMN the supernatant was analyzed by ELISA method as above reported.
(§1) To evaluate the source of sgp91phox we isolated platelets, PMN and lymphocytes/monocytes from the same blood sample.

[2] = tested on: hypercholesterolemic patients; details: group B, diet + atorvastatin 10 mg/day, end of 30 days, p<0.001
sgp91phox = sgp91phox in sera of the clinical study by the ELISA assay of the invention; format: in vivo, human; details: group B
Experimental: The samples tested were sera from the same sampling of the clinical study of Example 2, stored frozen at −80° C. up to the use.
The proprietary primary policlonal antibody against SEQ ID NO 1 and the primary monoclonal antibody against SEQ ID NO 3 (i.e., the proprietary antibody of the present invention from the hybridoma deposited at ATCC on Jun. 10, 2010 under No. SD-6311) already described above were diluted 1:100 with coating buffer (catalog. C3041, Sigma Chemicals) and 100 μl of this primary antibody solution were placed in 96-well ELISA plates for 1 h at room temperature (RT). After incubation the content of each well in the plates was removed and the wells were washed three times with washing buffer (Tris-buffered saline 50 mM, pH 8.0, Tween 20; catalog. T9039, Sigma Chemicals).
Subsequently, 200 μl of saturation buffer containing 1% BSA (catalog T6789, Sigma Chemicals) were added to the wells for 30 minutes at RT. The wells were then washed three times with the washing buffer, as above.
100 μl of standard or of sample to be assayed were then added to the wells and the incubation was carried out for 1 h at RT.
A standard curve was obtained by using increasing concentrations of the gp91^phox peptide of SEQ ID NO 1 or of the peptide of SEQ ID NO 3 (i.e., 64 pg/ml; 32 pg/ml; 16 pg/ml; 8 pg/ml) obtained by diluting the peptides in buffer, and incubated for 1 h see FIG. 4, panel A and panel B.
100 μl of a secondary goat-anti-rabbit IgG-HRP antibody (Santa Cruz, catalog sc2004) or of a secondary goat anti-mouse IgG-HRP antibody (Santa Cruz, catalog sc 2060) diluted 1:100 with coating buffer, were then incubated at RT for 1 h.
After aspirating the contents of the wells and washing three times with washing buffer, as described above, 100 μl of substrate (Santa Cruz, catalog SK-4400) were added to the wells for 30 minutes at RT. At the end of the incubation, 100 μl of H2SO4 2M (Merck, catalog 30148297) were also added to the wells. Subsequently, reading of the developed color was carried out with a spectrophotometer at 450 nm.
The final concentration of the samples were calculated by using the proper standard curve obtained with a gp91^phox peptide, as described above.

platelet gp91phox = test: gp91phox expression on platelets by flow cytometry in the clinical study; format: in vivo, human; details: after 30 days of treatment
Experimental: To evaluate gp91^phox expression on platelets, 50 μl of stabilized whole blood (see above) were incubated for 30 minutes with 5 μl of monoclonal antibody against gp91^phox (20 μg/ml; Santa Cruz), and 5 μl of PE-conjugated monoclonal antibody against CD61 (Coulter) (20 μg/ml), respectively, as described in Martino F. et al., PEDIATRICS (2008), supra. The samples incubated with the monoclonal antibody against gp91^phox were then incubated with a secondary IgG FITC-conjugated antibody against mouse. After incubation, 1 ml of 1× PBS was added to proceed with the cytofluorimetric analysis.
Isotypic controls were carried out by preparing a sample with a non-specific anti-mouse IgG-FITC e IgG1-PE with the same ratio f/p for FITC e PE. The adequate concentration of the monoclonal antibodies used was determined in preliminary tests (not shown).
All the samples were analyzed within 15 minutes from dilution. FITC fluorescence was detected with an Epics XL-MCL cytometer (Coulter, Milan Italy) at 525 nm, while PE fluorescence was detected at 575 nm. All the parameters were grouped with a 4-decade logarithmic amplification.
Spectral overlap was balanced by fluorescence compensation, as defined in preliminary tests. […] Platelets and platelet-platelet aggregates were identified by logical gating according to their CD61 phycoerythrin fluorescence and forward scatter characteristics. […]

lymphocytes/monocytes = test: sgp91phox in supernatant of lymphocytes/monocytes by ELISA; format: cell-based, human; details: LPS 100 ng/ml; unstimulated 1.11±0.55
Experimental: Blood samples were collected in heparinized tubes (10 IU/ml). Lynphocytes/Monocyte were isolated after centrifugation of the blood from healthy volunteers (n=5, healthy subjects) with a polysucrose-sodium diatrizoate solution, 1.077 g/ml density and 280 mOsm osmolarity (Lymphoprep; Nycomed, Oslo, Norway) at 800 g at 20° C. The Lynphocytes/Monocyte cell layer was collected and the cells were thus washed two times in a solution of cold phosphate-buffered saline (pH 7.2), supplemented with 1% fetal calf serum and 2 mmol/l EDTA (Sigma-Aldrich, Milano, Italy). The cell suspension was stimulated with or without lipopolysaccharide (100 ng/ml) (LPS), sgp91 content in the supernatant was evaluated by ELISA method as above reported.
as §1

[3] = 30 days atorvastatin vs baseline

CCCCC/C=C\C/C=C\C/C=C\C/C=C\CCCC(=O)O [AA, arachidonic acid]
sgp91phox in supernatant of stimulated platelets (platelets; AA-stimulated, unstimulated 1.18±0.84): 7.05 ± 2.04 pg/mL | ROS production after platelet activation (platelet NADPH oxidase): increase

CCCCCCCCCCCCCC(=O)O[C@@H]1[C@@H](C)[C@@]2(O)[C@@H](C=C(CO)C[C@]3(O)C(=O)C(C)=C[C@@H]23)[C@@H]2C(C)(C)[C@]12OC(C)=O [PMA, phorbol 12-myristate 13-acetate]
sgp91phox in supernatant of stimulated PMN [1]: 11.85 ± 3.23 pg/mL

COc1cc(C(C)=O)ccc1O [apocynin]
levels of sgp91phox shed in the cell medium of AA-activated platelets (platelets; specific NADPH oxidase inhibitors, ELISA of supernatant): decrease | effect on AA-induced ROS production in platelets (platelet NADPH oxidase; apocynin 100 μM, gp91ds-tat 50 μM): inhibited

CC(C)c1c(C(=O)Nc2ccccc2)c(-c2ccccc2)c(-c2ccc(F)cc2)n1CC[C@@H](O)C[C@@H](O)CC(=O)O [atorvastatin]
serum total cholesterol ([2]; from 276±46 at baseline): 208 ± 38 mg/dL | urinary isoprostanes levels ([2]; from 383±51 at baseline): 241±58 pg/mg of creatinine | reduction in sgp91phox, ELISA with monoclonal antibody (SD-6311) (sgp91phox; [3]): −25% | reduction in sgp91phox, ELISA with polyclonal antibody (sgp91phox; [3]): −33% | sgp91phox serum level, ELISA with monoclonal antibody (SD-6311) (sgp91phox; end of 30 days atorvastatin, from 32.5±4.6 at baseline, p<0.001): 23.5 ± 6.5 pg/mL | sgp91phox serum level, ELISA with polyclonal antibody (sgp91phox; end of 30 days atorvastatin, from 36.6±5.6 at baseline, p<0.001): 24.5 ± 7.7 pg/mL | variation in platelet gp91phox after treatment (platelet gp91phox): no significant variation

lipopolysaccharide [LPS]
sgp91phox in supernatant of stimulated lymphocytes/monocytes (lymphocytes/monocytes): 7.5 ± 2.64 pg/mL

From patent publication US20120156704A1, “IN VITRO METHOD FOR DETECTING GP91PHOX AS A MARKER OF OXIDATIVE STRESS” (BIOS INTERNATIONAL S.R.L., priority 2009, published 2012)
